Assay results: the supplement of paper PMC10627819

Tests used:
S. pneumoniae D39V [1] = experiment: Bliss interaction score (quartile over a dose matrix) (fitness difference); higher = more antagonism (negative = synergy)
Outline: (§1)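 Fitness here means normalised growth, inferred for single drugs from the combination data. Growth was OD595 at entry into stationary phase, divided by the plate's robust no-drug mean and capped at 1. The Bliss score is observed minus expected fitness, with the expectation being the product, and its quartiles span technical, biological and donor/recipient replicates.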

B. subtilis 168 = experiment: as above
Outline: as §1

S. aureus Newman = experiment: as above
Outline: as §1

S. aureus DSM 20231 = experiment: as above
Outline: as §1

S. pneumoniae D39V [2] = experiment: fitness (endpoint OD595 vs no drug) (fraction); higher = more growth
Outline: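 Plates with 384 wells were inoculated at OD595 0.01 using 30 µl of TSB, LB Lennox or CY, or 55 µl for S. pneumoniae. Incubation was at 37 °C, with OD595 measured every 30 min for 14 h. Fitness is the stationary-phase transition optical density over the robust mean of no-drug control wells, after first-reading background subtraction; it is capped at 1.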
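Wherever Bliss interaction score (quartile over a dose matrix) is given: first quartile when negative (synergy) and third quartile when positive (antagonism).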

CC1=C(C(=O)O)N2C(=O)[C@@H](NC(=O)[C@H](N)c3ccccc3)[C@H]2SC1 [Cephalexin] + CO[C@H]1/C=C/O[C@@]2(C)Oc3c(C)c(O)c4c(O)c(c(/C=N/N5CCN(C)CC5)c(O)c4c3C2=O)NC(=O)/C(C)=C\C=C\[C@H](C)[C@H](O)[C@@H](C)[C@@H](O)[C@@H](C)[C@H](OC(C)=O)[C@@H]1C [Rifampicin]
Conditions | Bliss interaction score
B. subtilis 168 | 0.12
S. aureus DSM 20231 | 0.0837
S. aureus Newman | 0.0156
S. pneumoniae D39V [1] | -0.065

fitness, S. pneumoniae D39V [2], one replicate
Conditions | first compound 0.125 µg/mL | first compound 0.25 µg/mL | first compound 0.5 µg/mL | first compound 1 µg/mL | first compound 2 µg/mL | first compound 4 µg/mL
partner 0.025 µg/mL | – | – | – | 0.258 | 0.0265 | 0.0322
partner 0.05 µg/mL | 0.714 | 0.774 | 0.7 | – | – | –
partner 0.1 µg/mL | 0.314 | 0.257 | 0.225 | – | – | –
partner 0.2 µg/mL | 0.207 | 0.141 | 0.108 | 0 | 0 | 0

fitness, S. pneumoniae D39V [2]
Conditions | first compound 1 µg/mL | first compound 2 µg/mL | first compound 4 µg/mL
partner 0.05 µg/mL | 0.301 | 0.0661 | 0.0542
partner 0.1 µg/mL | 0.14 | 0.0642 | 0.0638

CC1=C(C(=O)O)N2C(=O)[C@@H](NC(=O)[C@H](N)c3ccccc3)[C@H]2SC1 [Cephalexin] + Clc1ccc(COC(Cn2ccnc2)c2ccc(Cl)cc2Cl)c(Cl)c1 [Miconazole]
Conditions | Bliss interaction score
B. subtilis 168 | 0.0898
S. aureus DSM 20231 | 0.0471
S. aureus Newman | 0.063
S. pneumoniae D39V [1] | -0.0715

fitness, S. pneumoniae D39V [2], one replicate
Conditions | first compound 0.125 µg/mL | first compound 0.25 µg/mL | first compound 0.5 µg/mL
partner 1.25 µg/mL | 0.987 | 0.878 | 0.858
partner 2.5 µg/mL | 0.885 | 0.826 | 0.819
partner 5 µg/mL | 0.89 | 0.867 | 0.893

fitness, S. pneumoniae D39V [2]
Conditions | first compound 1 µg/mL | first compound 2 µg/mL | first compound 4 µg/mL
partner 1.073 µg/mL | – | – | 0.0455
partner 2.145 µg/mL | – | – | 0.0466
partner 4.29 µg/mL | 0.482 | 0.37 | 0.234

CC1=C(C(=O)O)N2C(=O)[C@@H](NC(=O)[C@H](N)c3ccccc3)[C@H]2SC1 [Cephalexin] + O=C1CN(/N=C/c2ccc([N+](=O)[O-])o2)C(=O)N1 [Nitrofurantoin]
Conditions | Bliss interaction score
B. subtilis 168 | 0.0716
S. aureus DSM 20231 | 0.145
S. aureus Newman | 0.0656
S. pneumoniae D39V [1] | 0.168

fitness, S. pneumoniae D39V [2], one replicate
Conditions | first compound 0.125 µg/mL | first compound 0.25 µg/mL | first compound 0.5 µg/mL | first compound 1 µg/mL | first compound 2 µg/mL | first compound 4 µg/mL
partner 2 µg/mL | 0.934 | 0.942 | 0.958 | – | – | –
partner 4 µg/mL | 0.92 | 0.958 | 0.953 | – | – | –
partner 5.14 µg/mL | – | – | – | 0.716 | 0.243 | 0.0653
partner 8 µg/mL | 0.756 | 0.775 | 0.805 | – | – | –

fitness, S. pneumoniae D39V [2]
Conditions | first compound 1 µg/mL | first compound 2 µg/mL | first compound 4 µg/mL
partner 1.285 µg/mL | 0.762 | 0.226 | 0.0641
partner 2.57 µg/mL | 0.768 | 0.336 | 0.0742

CNC(C)C1CCC(N)C(OC2C(N)CC(N)C(OC3OCC(C)(O)C(NC)C3O)C2O)O1 (stereo unspecified) [Gentamicin] + CO[C@H]1/C=C/O[C@@]2(C)Oc3c(C)c(O)c4c(O)c(c(/C=N/N5CCN(C)CC5)c(O)c4c3C2=O)NC(=O)/C(C)=C\C=C\[C@H](C)[C@H](O)[C@@H](C)[C@@H](O)[C@@H](C)[C@H](OC(C)=O)[C@@H]1C [Rifampicin]
main component drawn
Conditions | Bliss interaction score
B. subtilis 168 | 0.225
S. aureus DSM 20231 | 0.0516
S. aureus Newman | 0.0286
S. pneumoniae D39V [1] | 0.083

S. pneumoniae D39V [2], partner 0.025 µg/mL, main component drawn
Conditions | fitness
first compound 2 µg/mL | ≥ 1
first compound 4 µg/mL | ≥ 1
first compound 8 µg/mL | 0.935

S. pneumoniae D39V [2], partner 0.2 µg/mL, one replicate, main component drawn
Conditions | fitness
first compound 2 µg/mL | 0
first compound 4 µg/mL | 0
first compound 8 µg/mL | 0

Clc1ccc(COC(Cn2ccnc2)c2ccc(Cl)cc2Cl)c(Cl)c1 (stereo unspecified) [Miconazole] + CO[C@@]12[C@H](COC(N)=O)C3=C(C(=O)C(C)=C(N)C3=O)N1C[C@@H]1N[C@@H]12 [MitomycinC]
Conditions | Bliss interaction score
B. subtilis 168 | -0.066
S. aureus DSM 20231 | 0.0383
S. aureus Newman | -0.188
S. pneumoniae D39V [1] | 0.0662

Clc1ccc(COC(Cn2ccnc2)c2ccc(Cl)cc2Cl)c(Cl)c1 (stereo unspecified) [Miconazole] + COc1cc(Cc2cnc(N)nc2N)cc(OC)c1OC [Trimethoprim]
Conditions | Bliss interaction score
B. subtilis 168 | 0.0906
S. aureus DSM 20231 | 0.0514
S. aureus Newman | 0.0486
S. pneumoniae D39V [1] | -0.117

Clc1ccc(COC(Cn2ccnc2)c2ccc(Cl)cc2Cl)c(Cl)c1 (stereo unspecified) [Miconazole] + Oc1cc(Cl)ccc1Oc1ccc(Cl)cc1Cl [Triclosan]
Conditions | Bliss interaction score
B. subtilis 168 | 0.0625
S. aureus DSM 20231 | 0.0712
S. aureus Newman | 0.0222
S. pneumoniae D39V [1] | 0.0535

Cc1onc(-c2ccccc2)c1C(=O)N[C@@H]1C(=O)N2[C@@H]1SC(C)(C)[C@@H]2C(=O)O [Oxacillin] + C/C(=C\C(=O)OCCCCCCCCC(=O)O)C[C@@H]1OC[C@H](C[C@@H]2O[C@H]2[C@@H](C)[C@H](C)O)[C@@H](O)[C@H]1O [Pseudomonic acid]
Conditions | Bliss interaction score
B. subtilis 168 | 0.0424
S. aureus DSM 20231 | 0.0247
S. aureus Newman | 0.0232
S. pneumoniae D39V [1] | 0.158
